Bounds are passed on as bounds.

Among the data in patent publication US10457637B2, “Benzenesulfonamide derivatives as inverse agonists of retinoid-related orphan receptor gamma (RORγ(T))” (GALDERMA RESEARCH & DEVELOPMENT, priority 2014, dated 2019) are IC50 values, retold here.

For assay [1], the system named is IL-17A secretion by CD4+ cells. Briefly: IL-17A secretion by CD4+ cells (HTRF). It is filed as cell-based. To be noted: 96 h; human CD4+ cells activated with anti-CD3 and anti-CD28, 4 days of incubation; read-out: IC50 hCD4/IL17. The method, then: This model allows measurement of the effect of inhibitors on IL-17A secretion by CD4+ cells. […] The amount of IL-17a secreted is measured by the TR-FRET (kit HTRF® Human Interleukin 17A (Cisbio, #64H17PEC)) technology.
The cells are rapidly thawed, resuspended in their culture medium (RPMI inactivated 10% FCS) supplemented with soluble anti-CD28 antibodies and seeded (100 000 cells/well) in 96-well plates precoated with anti-CD3 antibodies. The cells are then treated with the ranges of inhibitors to be tested (from 1000 nM to 0.05 nM, 0.1% DMSO). […] The IC50 values are calculated from a 4-parameter logistic model using the XLFit software (IDBS).
(In general: Time-resolved FRET reads energy transfer from a long-lived donor to a nearby acceptor.)

Assay [2] deals with ROR gamma ligand-binding domain (hRORg) (Homo sapiens (Human), UniProt P51449). The experiment in a line: GAL4-RORγ transactivation (luciferase reporter, HG5LN HeLa line). It counts as cell-based. The following applies: 18 hours incubation. Summed up:
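HeLa-derived HG5LN cells stably expressing GAL4 DBD fused to human RORγ LBD with GAL4-driven luciferase reporter; inhibition of constitutive activity lowers luminescence.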
On the technique in general: A reporter such as luciferase makes a cellular process visible.

Chain of ROR gamma ligand-binding domain (hRORg) (P51449 269-508): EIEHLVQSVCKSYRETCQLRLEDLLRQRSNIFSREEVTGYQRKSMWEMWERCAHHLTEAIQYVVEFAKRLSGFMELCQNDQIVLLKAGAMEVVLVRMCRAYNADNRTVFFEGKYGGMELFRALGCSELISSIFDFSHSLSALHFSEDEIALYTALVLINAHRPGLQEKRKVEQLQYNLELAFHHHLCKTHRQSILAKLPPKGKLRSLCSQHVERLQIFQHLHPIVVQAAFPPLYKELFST

Turning to `CCc1ccc(N(CC(C)C)S(=O)(=O)c2ccc(NCC3CCOCC3)c(S(C)(=N)=O)c2)cc1` (stereo not shown) [compound 52, N-(4-ethylphenyl)-N-isobutyl-3-(S-methysulfonimidoyl)-4-[(tetrahydropyran-4-ylmethyl)amino]benzenesulfonamide], the IC50 in assay [1] was less than 100 nM.
For the compound `CCc1ccc(N(CC(C)C)S(=O)(=O)c2ccc(N3CCC(O)CC3)c(S(C)(=N)=O)c2)cc1` (stereo not shown) [compound 128, N-(4-ethylphenyl)-4-(4-hydroxypiperidin-1-yl)-N-isobutyl-3-(S-methylsulfonimidoyl)benzenesulfonamide], the IC50 in assay [2] and in assay [1] was greater than 1000 nM throughout.
For `CCc1ccc(N(CC(C)C)S(=O)(=O)c2ccc(NCC3CSC3)c(S(C)(=N)=O)c2)cc1` (stereo not shown) [compound 99, N-(4-ethylphenyl)-N-isobutyl-3-(S-methylsulfonimidoyl)-4-((thietan-3-ylmethyl)amino)benzenesulfonamide], the IC50 in assay [2] and in assay [1] was less than 100 nM each time.
As to `CCc1ccc(N(CC(C)C)S(=O)(=O)c2ccc(OCC3CCOCC3)c(S(=N)(=O)CC)c2)cc1` (stereo not shown) [compound 18, N-(4-ethylphenyl)-N-isobutyl-3-ethanesulfoximino-4-(tetrahydropyran-4-ylmethoxy)benzenesulfonamide], the IC50 in assay [1] is less than 100 nM.
Regarding `CCc1ccc(N(CC(C)C)S(=O)(=O)c2ccc(NCc3ccncc3)c(S(C)(=N)=O)c2)cc1` (stereo not shown) [compound 64, N-(4-ethylphenyl)-N-isobutyl-3-(S-methylsulfonimidoyl)-4-((pyridin-4-ylmethyl)amino)benzenesulfonamide], the IC50 in assay [2] and in assay [1] was less than 100 nM each time.
Turning to `CCc1ccc(N(CC(C)C)S(=O)(=O)c2ccc(N3CCOCC3)c(S(C)(=N)=O)c2)cc1` (stereo not shown) [compound 123, N-(4-ethylphenyl)-N-isobutyl-3-(S-methylsulfonimidoyl)-4-morpholinobenzenesulfonamide], the IC50 in assay [2] and in assay [1] was less than 100 nM in each case.
As to `CCc1ccc(N(CC(C)C)S(=O)(=O)c2ccc(N3CC[C@@H](O)C3)c(S(C)(=N)=O)c2)cc1` (stereo partly drawn) [compound 130, N-(4-ethylphenyl)-4-((R)-3-hydroxypyrrolidin-1-yl)-N-isobutyl-3-(S-methylsulfonimidoyl)benzenesulfonamide], the IC50 in assay [2] and in assay [1] was greater than 1000 nM throughout.
Consider `CCc1ccc(N(CC(C)C)S(=O)(=O)c2ccc(NCc3ccncn3)c(S(C)(=N)=O)c2)cc1` (stereo not shown) [compound 133, N-(4-ethylphenyl)-N-isobutyl-3-(S-methylsulfonimidoyl)-4-((pyrimidin-4-ylmethyl)amino)benzenesulfonamide], for which the IC50 in assay [2] and in assay [1] was less than 100 nM in each case.
Regarding `CCc1ccc(N(CC(C)C)S(=O)(=O)c2ccc(NC[C@@H]3[C@H]4COC[C@@H]34)c(S(C)(=N)=O)c2)cc1` (stereo partly drawn) [compound 91, 4-((((1R,5S,6S)-3-oxabicyclo[3.1.0]hexan-6-yl)methyl)amino)-N-(4-ethylphenyl)-N-isobutyl-3-(S-methylsulfonimidoyl)benzenesulfonamide], the IC50 in assay [2] and in assay [1] was less than 100 nM throughout.
For the compound `CCc1ccc(N(CC(C)C)S(=O)(=O)c2ccc(N3CCC4(COC4)C3)c(S(C)(=N)=O)c2)cc1` (stereo not shown) [compound 112, N-(4-ethylphenyl)-N-isobutyl-3-(S-methylsulfonimidoyl)-4-(2-oxa-6-azaspiro[3.4]octan-6-yl)benzenesulfonamide], the IC50 in assay [2] was 100 to 1000 nM; in assay [1], less than 100 nM.
As to `CCc1ccc(N(CC(C)C)S(=O)(=O)c2ccc(N3CCOC[C@H]3C)c(S(C)(=N)=O)c2)cc1` (stereo partly drawn) [compound 103, N-(4-ethylphenyl)-N-isobutyl-4-((R)-3-methylmorpholino)-3-(S-methylsulfonimidoyl)benzenesulfonamide], the IC50 in assay [2] and in assay [1] was greater than 1000 nM each time.
In the case of `CCc1ccc(N(CC(C)C)S(=O)(=O)c2ccc(N3CC(O)C3)c(S(C)(=N)=O)c2)cc1` (stereo not shown) [compound 131, N-(4-ethylphenyl)-4-(3-hydroxyazetidin-1-yl)-N-isobutyl-3-(S-methylsulfonimidoyl)benzenesulfonamide], the IC50 in assay [2] and in assay [1] was greater than 1000 nM throughout.
Take `CCc1ccc(N(CC(C)C)S(=O)(=O)c2ccc(OCC3CCOCC3)c(S(N)(=O)=O)c2)cc1` [compound 66, 4-(tetrahydropyran-4-ylmethoxy)benzene-1,3-disulfonic acid 3-amide 1-[(4-ethylphenyl)isobutylamide]]: the IC50 in assay [1] was less than 100 nM.
As to `CCc1ccc(N(CC(C)C)S(=O)(=O)c2ccc(N3CC[C@H](O)C3)c(S(C)(=N)=O)c2)cc1` (stereo partly drawn) [compound 129, N-(4-ethylphenyl)-4-((S)-3-hydroxypyrrolidin-1-yl)-N-isobutyl-3-(S-methylsulfonimidoyl)benzenesulfonamide], the IC50 in assay [2] and in assay [1] was greater than 1000 nM each time.
`CCc1ccc(N(CC(C)C)S(=O)(=O)c2ccc(N3CCSCC3)c(S(C)(=N)=O)c2)cc1` (stereo not shown) [compound 87, N-(4-ethylphenyl)-N-isobutyl-3-(S-methylsulfonimidoyl)-4-thiomorpholinobenzenesulfonamide]: the IC50 in assay [2] and in assay [1] was less than 100 nM throughout.
With `CCc1ccc(N(CC(C)C)S(=O)(=O)c2ccc(NCC3(OC)CCOCC3)c(S(C)(=N)=O)c2)cc1` (stereo not shown) [compound 125, N-(4-ethylphenyl)-N-isobutyl-4-(((4-methoxytetrahydro-2H-pyran-4-yl)methyl)amino)-3-(S-methylsulfonimidoyl)benzenesulfonamide], the figures for the IC50 in assay [2] and in assay [1] were 100 to 1000 nM and greater than 1000 nM, respectively.
For `CCc1ccc(N(CC(C)C)S(=O)(=O)c2ccc(OCC3(F)CCOCC3)c(S(C)(=N)=O)c2)cc1` (stereo not shown) [compound 30, N-(4-ethylphenyl)-4-((4-fluorotetrahydro-2H-pyran-4-yl)methoxy)-N-isobutyl-3-(S-methylsulfonimidoyl)benzenesulfonamide], in that order: less than 100 nM and less than 100 nM.
Consider `Cc1ccc(N(CC(C)C)S(=O)(=O)c2ccc(OCC3CCOCC3)c(S(C)(=N)=O)c2)c(C)c1` (stereo not shown) [compound 142, N-(2,4-dimethylphenyl)-N-isobutyl-3-(S-methylsulfonimidoyl)-4-((tetrahydro-2H-pyran-4-yl)methoxy)benzenesulfonamide], for which the IC50 in assay [2] and in assay [1] was less than 100 nM each time.
As to `CCc1ccc(N(CC(C)C)S(=O)(=O)c2ccc(NCC3(CC)CCOCC3)c(S(C)(=N)=O)c2)cc1` (stereo not shown) [compound 124, N-(4-ethylphenyl)-4-(((4-ethyltetrahydro-2H-pyran-4-yl)methyl)amino)-N-isobutyl-3-(S-methylsulfonimidoyl)benzenesulfonamide], the IC50 in assay [1] was less than 100 nM.
